Experiments:
[1] = test system: NASH subjects; conditions: FLINT trial; placebo 6%; cited from earlier work
[2] = test system: FGRS; assay: FGRS effects (specificity)
[3] = test system: NASH mice; assay: Diet-induced (AMLN diet) obese, insulin-resistant NASH model; assay type: in vivo, mouse
Description: A separate model for diet-induced NASH was developed as described by Trevaskis et al. Male C57BI6 mice aged ˜6 weeks were maintained on a high fat (40% kcal; Primex), high fructose (22% by weight), and high cholesterol (2% by weight) diet (Research Diets Inc., New Brunswick, N.J. cat. no. D09100301) for 26 weeks to induce NASH. Control animals received low-fat diet (10% kcal) with no fructose or cholesterol (Research Diets, cat. no. D09100304). […] . Expression of collagen, type I, alpha 1 (Col1a1) and tissue inhibitor of metalloproteinase 1 (Timp1) genes was analyzed by real time quantitative PCR.
. NASH was established in mice by feeding a high trans-fat, high fructose, and high cholesterol diet (AMLN diet) for 26 weeks followed by compound treatment for an additional 4 weeks. […] . […] .

[4] = Exposure prediction and exposure-response analysis in NASH patients; assay type: in vivo, human
[5] = test system: NASH patients; assay: Tropifexor 140-250 μg in patients with mild to moderate NASH and F2/F3 fibrosis; assay type: in vivo, human; conditions: dose of about 140 μg to about 250 μg
Description: Adult male and female patients with EITHER histologic evidence of NASH on liver biopsy within 2 years prior to randomization and elevated ALT, OR phenotypic diagnosis of NASH based on elevated ALT, Type 2 diabetes mellitus or elevated HbA1c and increased BMI, in both cases accompanied by liver fat >10% on centrally-read MRI.
Diagnosis of NASH: Adequate liver biopsy sample for evaluation by Central Reader to confirm Histologic evidence of NASH based on liver biopsy obtained during the Screening period or within 6 months before randomization with a diagnosis consistent with NASH, fibrosis level F2 or F3, and no diagnosis of alternative chronic liver diseases._AND_ALT ≥43 IU/L (males) or ≥28 IU/L (females).
Patients are assigned at the baseline visit to one of the following 3 treatment arms in a ratio of 1:1:1 in a blinded manner. Placebo capsules will be given to maintain blinding.
Arm 3: Once daily (morning, fasting) treatment with matching placebo for 48 weeks
The efficacy variables are: MRI for hepatic fat fraction, Liver Function Test, Liver histology, Coagulation test, Markers of liver fibrosis, NAFLD Fibrosis score, Fasting lipids, Fasting insulin and glucose, Soluble biomarkers.

[6] = test system: FGF19; assay: Pharmacodynamic marker FGF19 with increasing doses; assay type: in vivo; conditions: increasing doses up to 3000 μg
[7] = test system: STAM mice; assay: STAM model of NASH
Description: Further experiments in the STAM model were performed: 2-day old male C57BI/6J mice were injected with streptozotocin and placed on a high-fat diet (HFD) from weeks 4-12 (HFD-32; CLEA-Japan, Tokyo, Japan). […] Hematoxylin & eosin (H&E)-stained sections were evaluated for nonalcoholic fatty liver disease (NAFLD) activity score (NAS) according to previously defined criteria. Liver total lipid-extracts were isolated, and triglycerides were measured using the Triglyceride E-test (Wako Pure Chemical Industries, Ltd., Japan).
(§1) Liver sections were fixed in 4% paraformaldehyde for 48 h and shipped for histopathological analysis. Liver damage and collagen deposition were assessed by H&E staining and picrosirius red staining, respectively. […] Quantification of images was done with a positive pixel count algorithm using Aperio software (Aperio, Inc., Vista, Calif.).

[8] = test system: ANIT-induced cholestatic rats; assay: ANIT-induced cholestasis rat model
Description: Rats were sacrificed 3-5 h after the last dose, blood samples were collected by cardiac puncture, and serum biomarkers of cholestasis, namely alanine transaminase (ALT), aspartate transaminase (AST), alkaline phosphatase (ALP), total bilirubin, total BA, and gamma-glutamyl transpeptidase (GGT) were analyzed.
as §1

[9] = Oral gavage toxicity study in dogs for up to 39 weeks; conditions: dog, in vivo

SMILES: CC[C@H]1[C@@H](O)[C@@H]2[C@H](CC[C@]3(C)[C@@H]([C@H](C)CCC(=O)O)CC[C@@H]23)[C@@]2(C)CC[C@@H](O)C[C@@H]12 [OCA, 6α-ethyl-chenodeoxycholic acid]
- patients with pruritus [1]: 23%

SMILES: O=C(O)c1cc(F)c2nc(N3C4CC[C@H]3C[C@H](OCc3c(-c5ccccc5OC(F)(F)F)noc3C3CC3)C4)sc2c1 [tropifexor, 2-[(1R,3r,5S)-3-({5-cyclopropyl-3-[2-(trifluoromethoxy)phenyl]-1,2-oxazol-4-yl}methoxy)-8-azabicyclo[3.2.1]octan-8-yl]-4-fluoro-1,3-benzothiazole-6-carboxylic acid]
- FGRS effects [2]: no FGRS effects
- IBA positive staining (inflammation) ([3]; 0.3 and 0.9 mg/kg dose groups): normalized to the same level of the control diet group
- liver histology: steatosis, ballooning, and inflammation ([3]; 0.3 and 0.9 mg/kg dose groups): completely reverted
- collagen deposition in liver (trichrome staining) ([3]; even to levels lower than low-fat diet control mice): strongly abrogates
- ALT/AST ([3]; high dose): reduced ALT/AST to an even greater extent
- hepatic crown-like structures ([3]; mid- and high dose): completely eliminated
- ALT and AST levels ([3]; mid-dose level): normalized ALT and AST levels to that of control animals
- mRNA levels of fibrogenic markers Col1a1 and TIMP1 ([3]; mouse, in vivo): dramatically reduced
- steatosis by quantification of liver triglycerides ([3]; mouse, in vivo): Dose-dependent reduction in steatosis
- ALT and AST ([3]; relative to vehicle-treated controls): dose-dependent reduction
- predicted exposure ([4]; 200 μg daily in NASH patients): approximately 80 ng·hr/ml
- NASH patients achieving an AUC >40 ng*h/mL ([4]; 200 μg dose): ~95%
- AUC ([4]; human, in vivo, oral, 200 ug, read-out: exposure level (AUC) in NASH patients): 80 ng·h/mL
- patients with liver fibrosis improvement (at least 1 stage) with no worsening of NAS [5]: about 50%
- patients with normalization of liver enzymes [5]: ≥ 50%
- patients with resolution of NASH (NAS 0 or 1) with no worsening of liver fibrosis [5]: about 30%
- pruritus outcomes (NASH PRO, 5-D pruritus or VAS) [5]: no significant pruritus outcomes
- reduction of hepatic fat, absolute [5]: 5%
- FGF19 [6]: continues to rise
- NAFLD activity score (NAS) ([7]; doses 0.1 and 0.3 mg/kg, qd orally weeks 9-12): significant decrease
- fibrosis area ([7]; in comparison with baseline group): decreased in comparison with baseline group
- pericellular fibrosis (Sirius Red-positive areas) ([7]; mouse, in vivo): statistically significant dose-dependent reduction
- liver triglycerides ([7]; tropifexor qd orally weeks 9-12, relative to baseline group): reduction in liver triglycerides
- levels of most cholestatic markers ([8]; 1.0 mg/kg dose, oral qd 5 days): normalized to corresponding levels of vehicle-treated non-cholestatic control animals
- collagen deposition and liver fibrosis ([8]; dose-dependent manner): highly reduced
- quantitation of collagen deposition (fibrosis) ([8]; dose-dependent manner): significantly decreased
- AST, ALT, total BAs, total bilirubin, and GGT levels ([8]; doses as low as 0.3 mg/kg, oral qd 5 days): marked reduction
- liver histology: necrosis of the bile duct epithelium, bile duct hyperplasia, inflammatory cell infiltrates ([8]; versus vehicle-treated cholestatic rats): dose-dependent improvement
- AUC(0-t) ([9]; female): 507 ng·h/mL
- AUC(0-t) ([9]; male): 898 ng·h/mL

From patent US20190161483A1, “METHODS FOR USING FXR AGONISTS” (Novartis AG, priority 2017, published 2019)
